Laboratory results published in patent publication US9597407B2, “Targeted antimicrobial moieties” (C3 Jian, Inc., priority 2009, dated 2017).

Assays:
[1] = system: microorganisms; experiment: Morphology, biofilm and growth disruption by peptides (Table 5); format: cell-based; design: key: A: Peptide aggregates; B: Less hyphal formation; Clumps; Diffuse clumps and small polyps; F: Diffuse growth; H: Thin; I: Growth inhibition; Microcolony formation; Rippled; Small polyps; Thick; W: Halo formation on top, microlonies on bottom
Text: In certain embodiments peptides that induce alterations in phenotype or other biological activities can also be used as antimicrobial effector moieties.

[2] = system: microorganisms; experiment: Peptide activities: binding, antimicrobial, growth or phenotype altering (Table 8)
Text: In certain embodiments, peptides described herein can have multiple activities. Thus for example, a peptide can have both binding/targeting activity and antimicrobial activity. Such peptides can be used, e.g., in a chimeric construct, for any or all of these properties. Thus, for example, a peptide designated “B” in Table 8 can be used as a targeting peptide. If it is also designated G or M it can also be used for antimicrobial activity.

Substance	Organism, effect ([1]; MRSA)	Activities [2]	Organism, effect ([1]; E. coli)	Organism, effect ([1]; E. faecalis)	Organism, effect ([1]; S. epidermidis)	Organism, effect (morphology, biofilm and growth disruption) ([1]; E. coli)	Organism, effect (morphology, biofilm and growth disruption) ([1]; E. faecalis)	Organism, effect (morphology, biofilm and growth disruption) ([1]; MRSA)	Organism, effect (morphology, biofilm and growth disruption) ([1]; S. epidermidis)	Organism, effect (morphology, biofilm and growth disruption) ([1]; S. pneumoniae)	also measured
PF-354 (FTFSKCRASNGRGFGTLWL; Peptide with targeting and/or antimicrobial activity)	MRSA (H)	G B									
PF-355 (WIAIGLLLYFSLKNQ; Peptide with targeting and/or antimicrobial activity)	MRSA (A)	G B	E. coli (C)	E. faecalis (D)	S. epidermidis (C)						Organism, effect ([1]; C. jejuni): C. jejuni (D); Organism, effect ([1]; P. aeruginosa): P. aeruginosa (A); Organism, effect ([1]; S. pneumoniae): S. pneumoniae (D)
PF-356 (VSIKIGAIVIGMIGLMELLTE; Peptide with targeting and/or antimicrobial activity)	MRSA (C)	G B		E. faecalis (R)	S. epidermidis (S)						Organism, effect ([1]; C. jejuni): C. jejuni (D); Organism, effect ([1]; P. aeruginosa): P. aeruginosa (A); Organism, effect ([1]; S. pneumoniae): S. pneumoniae (R)
PF-357 (MLTIIIGFIFWTMTLMLGYLIGEREGRKHE; Peptide with targeting and/or antimicrobial activity)	MRSA (M)	G B			S. epidermidis (M)						Organism, effect ([1]; M. luteus): M. luteus (C); Organism, effect ([1]; S. pneumoniae): S. pneumoniae (M)
PF-374 (HLFFVKGMFILCQKNQINDE; Peptide with targeting and/or antimicrobial activity)	MRSA (M)	G B	E. coli (C)	E. faecalis (C)	S. epidermidis (C)						
PF-375 (MDSAKAQTMRTDWLAVSCLVASAYLRSMLA; Peptide with targeting and/or antimicrobial activity)	MRSA (C)	G B	E. coli (C)	E. faecalis (C)	S. epidermidis (C)						
PF-376 (MTVFEALMLAIAFATLIVKISNKNDKK; Peptide with targeting and/or antimicrobial activity)	MRSA (C)	G B	E. coli (C)	E. faecalis (C)	S. epidermidis (C)						
PF-379 (VFVVLFIIYLASKLLTKLFPIKK; Peptide with targeting and/or antimicrobial activity)	MRSA (C)	G B	E. coli (C)	E. faecalis (C)	S. epidermidis (C)						
PF-380 (KKIIPLITLFVVTLVG; Peptide with targeting and/or antimicrobial activity)	MRSA (D)	G B	E. coli (C)	E. faecalis (C)	S. epidermidis (C)						Organism, effect ([1]; C. jejuni): C. jejuni (D); Organism, effect ([1]; P. aeruginosa): P. aeruginosa (A); Organism, effect ([1]; S. pneumoniae): S. pneumoniae (D)
PF-386 (FTLTLITTIVAILNYKDKKK; Peptide with targeting and/or antimicrobial activity)	MRSA (C)	G B	E. coli (C)	E. faecalis (C)	S. epidermidis (C)						
PF-439 (RVLVLKKFHGIMDGNRNVAVFFVGQ; Peptide with targeting and/or antimicrobial activity)		G B				E. coli (R)	E. faecalis (C)	MRSA (M)	S. epidermidis (C)	S. pneumoniae (R)	
PF-440 (MFIISPDLFNIAVILYILFFIHDILLLILS; Peptide with targeting and/or antimicrobial activity)		G B				E. coli (R)	E. faecalis (C)	MRSA (C)	S. epidermidis (C)	S. pneumoniae (R)	
PF-443 (KLLYFFNYFENLQQVHLLVQL; Peptide with targeting and/or antimicrobial activity)		G B				E. coli (R)		MRSA (C)		S. pneumoniae (C)	
PF-450 (HRNLIILQRTIFI; Peptide with targeting and/or antimicrobial activity)		G B					E. faecalis (C)	MRSA (C)		S. pneumoniae (C)	
PF-451 (MVNYIIGSYMLYREQNNNEALRKFDITLAM; Peptide with targeting and/or antimicrobial activity)		G B				E. coli (R)	E. faecalis (C)	MRSA (C)	S. epidermidis (C)	S. pneumoniae (C)	
PF-454 (MSVFVPVTNIFMFIMSPIFNVNLLHFKVYI; Peptide with targeting and/or antimicrobial activity)		G B				E. coli (R)	E. faecalis (C)	MRSA (C)	S. epidermidis (C)	S. pneumoniae (R)	Organism, effect (morphology, biofilm and growth disruption) ([1]; P. aeruginosa): P. aeruginosa (H)
PF-458 (ISLIIFIMLFVVALFKCITNYKHQS; Peptide with targeting and/or antimicrobial activity)		G B						MRSA (M)		S. pneumoniae (M)	Organism, effect (morphology, biofilm and growth disruption) ([1]; P. aeruginosa): P. aeruginosa (H)
PF-460 (MEHVLPFQNTPPNIVIIYKDFTHLKSITFS; Peptide with targeting and/or antimicrobial activity)		G B				E. coli (H)	E. faecalis (C)	MRSA (C)	S. epidermidis (C)	S. pneumoniae (R)	
PF-465 (KPVGKALEEIADGKIEPVVPKEYLG; Peptide with targeting and/or antimicrobial activity)		G B								S. pneumoniae (H)	
PF-469 (YKVNYNNIDNHFNTLRH; Peptide with targeting and/or antimicrobial activity)		G B				E. coli (C)	E. faecalis (D)	MRSA (D)	S. epidermidis (D)	S. pneumoniae (D)	Organism, effect (morphology, biofilm and growth disruption) ([1]; C. jejuni): C. jejuni (D)
PF-471 (MVGKIRGVTPRNDLLNANITGQLNLNYRLI; Peptide with targeting and/or antimicrobial activity)		G B				E. coli (C)	E. faecalis (C)	MRSA (D)	S. epidermidis (C)	S. pneumoniae (D)	Organism, effect (morphology, biofilm and growth disruption) ([1]; C. jejuni): C. jejuni (D); Organism, effect (morphology, biofilm and growth disruption) ([1]; P. aeruginosa): P. aeruginosa (A)
